Key:
skeletal muscle cells = test: Myotube formation and muscle protein expression in primary cultures of skeletal muscle cells; type: cell-based, mice
Protocol: GTE and EGCG also display unexpected pro myogenic properties. Primary cultures of skeletal muscle cells were established from both normal and dystrophic mice and treated with GTE and EGCG for 1-7 days. […] The amount of myotubes reached similar level with both agents compared to control thereafter. Western-blot analysis was performed on myotube cultures treated for 7 days.

mdx hearts = settings: Khairallah et al. (2008); cited from earlier work

Row | Structure (SMILES) | expression of muscle-specific proteins (dystrophin, sarcomeric alpha actinin, MyHC) (skeletal muscle cells; myotube cultures treated for 7 days, Western blot) | rate of formation of myotubes (skeletal muscle cells; primary skeletal muscle cell cultures from normal and dystrophic mice, within first 2-4 days, MyHC staining) | myocardial contractile performance (mdx hearts)
1 | O=C(O[C@@H]1Cc2c(O)cc(O)cc2O[C@@H]1c1cc(O)c(O)c(O)c1)c1cc(O)c(O)c(O)c1 [EGCG, epigallocatechin gallate] | promoted the expression of several muscle-specific proteins | concentration-dependently stimulated the rate of formation of myotubes | 
2 | CCCc1nn(C)c2c(=O)[nH]c(-c3cc(S(=O)(=O)N4CCN(C)CC4)ccc3OCC)nc12 [sildenafil] |  |  | prevents deterioration of myocardial contractile performance
